Results on five compounds are retold here after patent US8084448B2, “Organic compounds” (Novartis AG, priority 2006, dated 2011).

Molecules are shown by their SMILES. Where a name gives a salt, the structure may show the parent alone.

Usually melting point stands for the temperature of the solid-liquid transition. For `O=C1CN(c2ccc(-c3ccoc3)cc2O)S(=O)(=O)N1` (as salt: potassium) [Example 272, 5-(4-Furan-3-yl-2-hydroxyphenyl)-1,1-dioxo-1,2,5-thiadiazolidin-3-one], the melting point lay in the range of 230 to 235 °C. `O=C1CN(c2ccc(OCCc3ccccc3)cc2O)S(=O)(=O)N1` [Example 55, 5-(2-Hydroxy-4-phenethyloxyphenyl)-1,1-dioxo-1,2,5-thiadiazolidin-3-one] returned a melting point of 65 to 70 °C. `COC(=O)c1c(O)cccc1OCCCCNC(=O)CCc1ccc(N2CC(=O)NS2(=O)=O)c(O)c1` [Example 110, 2-Hydroxy-6-(4-{3-[3-hydroxy-4-(1,1,4-trioxo-1,2,5-thiadiazolidin-2-yl)-phenyl]-propionylamino}-butoxy)-benzoic Acid Methyl Ester] gave a melting point of 85 to 90 °C. To `O=C(O)COc1ccc(N2CC(=O)NS2(=O)=O)c(O)c1` [Example 296, [3-Hydroxy-4-(1,1,4-trioxo-1,2,5-thiadiazolidin-2-yl)-phenoxy]-acetic Acid] belongs 185 to 188 °C; to `O=C1CN(c2ccc(S(=O)(=O)c3ccccc3)cc2O)S(=O)(=O)N1` [Example 318, 5-(4-Benzenesulfonyl-2-hydroxyphenyl)-1,1-dioxo-1,2,5-thiadiazolidin-3-one], 126 to 180 °C.
